# Results as given in patent US8399521B2, “Methods of treating skin with aromatic skin-active ingredients” (Mary Kay Inc., priority 2008, dated 2013).
# What was measured:
# Type in all cases: biochemical
# [1] = biological target: T1, COX-2 (Ovis aries, UniProt P79208); experiment: Colorimetric COX (ovine) inhibitor screening assay, COX-2; conditions: 0.001% test compound; for Cox-2 Inhibition (0.001%): negative = inhibition vs non-treated control; for inhibition at 0.001 %: 0.25 h
# T1 construct: purchased Cayman Chemical 760111
# T1 sequence (P79208 17-603): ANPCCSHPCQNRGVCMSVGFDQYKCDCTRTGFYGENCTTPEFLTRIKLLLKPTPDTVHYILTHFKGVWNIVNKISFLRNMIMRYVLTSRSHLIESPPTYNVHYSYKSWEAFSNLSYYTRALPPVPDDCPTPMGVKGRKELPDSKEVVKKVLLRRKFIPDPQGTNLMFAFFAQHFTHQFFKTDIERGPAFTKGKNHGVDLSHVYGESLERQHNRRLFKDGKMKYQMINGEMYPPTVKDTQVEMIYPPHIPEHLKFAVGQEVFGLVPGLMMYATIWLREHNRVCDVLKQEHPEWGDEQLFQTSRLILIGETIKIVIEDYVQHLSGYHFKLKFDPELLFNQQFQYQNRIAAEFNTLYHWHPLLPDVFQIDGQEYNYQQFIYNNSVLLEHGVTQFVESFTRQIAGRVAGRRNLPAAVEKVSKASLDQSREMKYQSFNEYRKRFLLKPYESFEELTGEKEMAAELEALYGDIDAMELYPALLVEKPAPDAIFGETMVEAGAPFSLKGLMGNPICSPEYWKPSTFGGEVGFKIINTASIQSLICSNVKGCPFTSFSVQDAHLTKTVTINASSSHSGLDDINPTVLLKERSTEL
# Description: (§1) Cyclooxygenase (COX) assay: An in vitro cyclooxygenase-1 and -2 (COX-1, -2) inhibition assay. […] The cyclooxygenase activity converts arachidonic acid to a hydroperoxy endoperoxide (Prostaglandin G2; PGG2) and the peroxidase component reduces the endoperoxide (Prostaglandin H2; PGH2) to the corresponding alcohol, the precursor of prostaglandins, thromboxanes, and prostacyclins. This COX Inhibitor Screening Assay measures the peroxidase component of cyclooxygenases. The peroxidase activity is assayed colorimetrically by monitoring the appearance of oxidized N,N,N′,N′-tetramethyl-p-phenylenediamine (TMPD). This inhibitor screening assay includes both COX-1 and COX-2 enzymes in order to screen isozyme-specific inhibitors.
# (§2) Following manufacturer instructions for the Colormetric COX (ovine) Inhibitor screening assay (#760111, Cayman Chemical), purified cyclooxygnase enzyme (COX-1 or COX-2), heme and test compounds were mixed in assay buffer and incubated with shaking for 15 min at room temperature. Following incubation, arachidonic acid and colorimetric substrate were added to initiate the reaction and incubated for an additional 15 min at room temperature with shaking. Color progression was evaluated by fluoresecence plate reading at 590 nm. The percent inhibition of COX-1 or COX-2 activity was calculated compared to non-treated controls to determine the ability of test compounds to inhibit the activity of purified enzyme.
# [2] = biological target: T2, MMP9 (Homo sapiens, UniProt P14780); experiment: Matrix metalloproteinase enzyme activity assay, MMP9; conditions: for MMP9 Inhibition (0.001%): 0.001% test compound, Table 2; for MMP9 Inhibition (0.001%) / MMP9 Inhibition (0.01%): negative = inhibition vs diluent control; for MMP9 Inhibition (0.01%) / inhibition at 0.01 %: 0.01% test compound, Table 3
# T2 construct: purchased BioMol International AK-410
# Description: (§3) Matrix metalloproteinase enzyme activity (MMP3; MMP9) assay: An in vitro matrix metalloprotease (MMP) inhibition assay. MMPs are extracellular proteases that play a role in many normal and disease states by virtue of their broad substrate specificity. MMP3 substrates include collagens, fibronectins, and laminin; while MMP9 substrates include collagen VII, fibronectins and laminin. Using Colorimetric Drug Discovery kits from BioMol International for MMP3 (AK-400) and MMP-9 (AK-410), this assay is designed to measure protease activity of MMPs using a thiopeptide as a chromogenic substrate (Ac-PLG-[2-mercapto-4-methyl-pentanoyl]-LG-OC2H5)5,6. The MMP cleavage site peptide bond is replaced by a thioester bond in the thiopeptide. Hydrolysis of this bond by an MMP produces a sulfhydryl group, which reacts with DTNB [5,5′-dithiobis(2-nitrobenzoic acid), Ellman's reagent] to form 2-nitro-5-thiobenzoic acid, which can be detected by its absorbance at 412 nm (ε=13,600 M-1 cm-1 at pH 6.0 and above 7). Data is reflected as % inhibition of the purified enzyme activity.
# [3] = biological target: T3, 15-lipoxygenase (Glycine max, UniProt P08170); experiment: Lipoxygenase (LO) inhibition assay; conditions: 0.1% test compound; negative = inhibition vs non-treated control; Table 2
# T3 construct: purchased Cayman Chemical 760700
# T3 sequence (P08170 1-839): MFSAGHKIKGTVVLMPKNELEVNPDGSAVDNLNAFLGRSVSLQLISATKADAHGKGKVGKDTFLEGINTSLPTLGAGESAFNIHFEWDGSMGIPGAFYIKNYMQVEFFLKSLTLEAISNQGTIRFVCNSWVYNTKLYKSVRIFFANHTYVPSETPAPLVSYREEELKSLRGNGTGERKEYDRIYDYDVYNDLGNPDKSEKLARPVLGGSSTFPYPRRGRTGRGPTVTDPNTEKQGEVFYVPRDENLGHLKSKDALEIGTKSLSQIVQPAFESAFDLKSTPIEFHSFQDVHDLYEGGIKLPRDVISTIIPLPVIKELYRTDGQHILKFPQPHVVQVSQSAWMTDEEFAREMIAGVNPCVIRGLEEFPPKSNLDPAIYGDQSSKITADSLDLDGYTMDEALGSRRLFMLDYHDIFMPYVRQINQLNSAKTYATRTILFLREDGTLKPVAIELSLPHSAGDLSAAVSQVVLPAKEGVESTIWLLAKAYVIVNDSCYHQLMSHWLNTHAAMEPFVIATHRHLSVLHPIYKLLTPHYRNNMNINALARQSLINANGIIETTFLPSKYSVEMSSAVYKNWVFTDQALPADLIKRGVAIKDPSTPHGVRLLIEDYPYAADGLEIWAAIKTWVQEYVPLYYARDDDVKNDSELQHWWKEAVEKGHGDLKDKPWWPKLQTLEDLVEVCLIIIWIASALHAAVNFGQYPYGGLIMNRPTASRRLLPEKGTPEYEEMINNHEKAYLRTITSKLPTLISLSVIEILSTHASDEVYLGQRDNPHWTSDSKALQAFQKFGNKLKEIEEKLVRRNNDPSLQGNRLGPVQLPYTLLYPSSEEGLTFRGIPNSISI
# Experimental: Lipoxygenase (LO) assay: An in vitro lipoxygenase (LO) inhibition assay. LOs are non-heme iron-containing dioxygenases that catalyze the addition of molecular oxygen to fatty acids. Linoleate and arachidonate are the main substrates for LOs in plants and animals. […] This assay provides an accurate and convenient method for screening lipoxygenase inhibitors by measuring the hydroperoxides generated from the incubation of a lipoxygenase (5-, 12-, or 15-LO) with arachidonic acid.
# Following incubation, arachidonic acid was added to initiate the reaction and mixtures incubated for an additional 10 min at room temperature. Colorimetric substrate was added to terminate catalysis and color progression was evaluated by fluorescence plate reading at 490 nm. The percent inhibition of lipoxyganse activity was calculated compared to non-treated controls to determine the ability of test compounds to inhibit the activity of purified enzyme.
# [4] = biological target: T4, COX-1 (Ovis aries, UniProt P05979); experiment: Colorimetric COX (ovine) inhibitor screening assay, COX-1; conditions: negative = inhibition vs non-treated control; for Cox-1 Inhibition (0.020%): 0.020% test compound, Table 2
# T4 construct: purchased Cayman Chemical 760111
# T4 sequence (P05979 25-600): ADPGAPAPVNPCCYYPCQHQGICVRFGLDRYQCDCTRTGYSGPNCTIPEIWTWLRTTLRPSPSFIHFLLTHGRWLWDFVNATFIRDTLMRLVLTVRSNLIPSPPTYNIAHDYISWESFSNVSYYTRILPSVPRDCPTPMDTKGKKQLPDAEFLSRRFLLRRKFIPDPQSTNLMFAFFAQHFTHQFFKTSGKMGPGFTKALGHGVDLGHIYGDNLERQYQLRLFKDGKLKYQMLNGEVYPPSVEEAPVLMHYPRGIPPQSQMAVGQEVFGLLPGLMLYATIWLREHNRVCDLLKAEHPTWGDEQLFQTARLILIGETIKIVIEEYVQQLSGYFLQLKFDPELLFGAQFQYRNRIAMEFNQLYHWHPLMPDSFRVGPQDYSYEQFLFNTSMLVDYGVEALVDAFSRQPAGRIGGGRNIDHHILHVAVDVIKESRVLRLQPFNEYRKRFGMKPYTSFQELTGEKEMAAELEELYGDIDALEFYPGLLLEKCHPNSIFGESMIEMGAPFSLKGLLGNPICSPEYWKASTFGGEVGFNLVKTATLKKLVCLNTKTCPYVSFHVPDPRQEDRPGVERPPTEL
# Description: as §1, §2
# [5] = biological target: T5, MMP3 (Homo sapiens, UniProt P08254); experiment: Matrix metalloproteinase enzyme activity assay, MMP3; conditions: 0.001% test compound; negative = inhibition vs diluent control; Table 2
# T5 construct: purchased BioMol International AK-400
# Description: as §3
# T2 sequence (P14780 107-444 limits assumed): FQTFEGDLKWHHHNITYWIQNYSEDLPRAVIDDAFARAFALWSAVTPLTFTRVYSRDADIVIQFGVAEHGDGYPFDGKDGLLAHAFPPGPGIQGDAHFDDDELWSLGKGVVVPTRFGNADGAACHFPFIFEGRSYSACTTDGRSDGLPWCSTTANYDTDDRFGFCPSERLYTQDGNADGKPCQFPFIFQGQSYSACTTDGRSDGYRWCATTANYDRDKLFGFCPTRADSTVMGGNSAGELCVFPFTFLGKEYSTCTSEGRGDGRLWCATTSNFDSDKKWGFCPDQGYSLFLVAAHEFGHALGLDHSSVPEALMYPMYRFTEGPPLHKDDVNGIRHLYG
# T5 sequence (P08254 100-272 limits assumed): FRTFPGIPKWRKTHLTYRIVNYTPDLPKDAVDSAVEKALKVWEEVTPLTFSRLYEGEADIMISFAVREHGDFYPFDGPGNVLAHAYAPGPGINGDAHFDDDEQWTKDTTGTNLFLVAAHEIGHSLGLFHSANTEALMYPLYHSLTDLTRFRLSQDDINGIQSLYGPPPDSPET
compound,measurement,setting,value
"1-(1,2,3,4,5,6,7,8-octahydro-2,3,8,8-tetramethyl-2-naphthalenyl)ethan-1-one; 1-(2,3,8,8-tetramethyl-1,2,3,5,6,7,8,8a-octahydronaphthalen-2-yl)ethanone; and 1-(2,3,8,8-tetramethyl-1,2,3,4,6,7,8,8a-octahydronaphthalen-2-yl)ethanone [Iso E super]",Cox-2 Inhibition (0.001%),[1]; Table 3,−20.80%
"2,6-nonadien-1-al (trans, trans; trans, cis)",MMP9 Inhibition (0.001%),[2],−32.53%
same,Cox-2 Inhibition (0.001%),[1]; Table 2,−17.58%
same,LO Inhibition (0.1%),[3],−45.58%
same,Cox-1 Inhibition (0.020%),[4],−11.42%
same,MMP3 Inhibition (0.001%),[5],−20.34%
3-hexen-1-ol (E) and (Z),MMP9 Inhibition (0.01%),[2],−23.82%
same,Cox-2 Inhibition (0.001%),[1]; Table 3,−23.56%
"3a,4,5,6,7,7a-hexahydro-4,7-methano-1h-inden-5(or 6)-yl acetate [Cyclacet]",LO Inhibition (0.1%),[3],−26.37%
"CCCC/C=C/C=C/C=O [2,4-nonadien-1-al]",MMP9 Inhibition (0.001%),[2],−19.87%
same,inhibition at 0.001 %,[1]; Table 2,21.1%
same,MMP3 Inhibition (0.001%),[5],−23.75%
CCCCCCCCC/C=C/C=O [2-dodecenal (E)],MMP9 Inhibition (0.001%),[2],−24.98%
CC/C=C(\C)C(O)CCCCC (stereo not drawn) [4-methyl-3-decen-5-ol],inhibition at 0.01 %,[2],28.1%
"CCCCCCCCCCCC=O [Aldehyde C-12 Lauric, 1-dodecanal]",MMP9 Inhibition (0.001%),[2],−27.64%
"CCCCCC1CCC(=O)O1 (stereo not drawn) [Aldehyde C-18, 5-pentyldihydrofuran-2(3H)-one]",inhibition at 0.01 %,[2],22.2%
same,inhibition at 0.001 %,[1]; Table 3,22.6%
"CC(=O)/C=C/C1=C(C)CCCC1(C)C [Beta Ionone, (3E)-4-(2,6,6-trimethylcyclohex-1-en-1-yl)but-3-en-2-one]",MMP9 Inhibition (0.001%),[2],−19.82%
"CC/C=C\CCCCC=O [Cis-6-Nonenal, cis-6-nonenal]",inhibition at 0.01 %,[2],19.2%
same,inhibition at 0.001 %,[1]; Table 3,27.1%
"CC(=O)OCCC(C)CCC=C(C)C (stereo not drawn) [Citronellyl Acetate, 3,7-dimethyl-6-octen-1-yl acetate]",inhibition at 0.001 %,[1]; Table 4,20.9%
same,Cox-1 Inhibition (0.001%),"[4]; 0.001% test compound, Table 4",−27.99%
"O=C1CCCCCCCCCCCC(=O)OCCO1 [Ethylene Brassylate, 1,4-dioxacycloheptadecane-5,17-dione]",inhibition at 0.01 %,[2],33%
same,inhibition at 0.001 %,[1]; Table 3,20.6%
"CCOC(=O)C1C2C=CC(C2)C1C(C)C (stereo not drawn) [Herbanante, ethyl 3-isopropylbicyclo[2.2.1]hept-5-ene-2-carboxylate]",inhibition at 0.01 %,[2],26.8%
same,inhibition at 0.001 %,[1]; Table 3,25.1%
"CCC/C=C\COC(C)=O [Leaf Acetate, cis-2-hexenyl acetate]",inhibition at 0.01 %,[2],22%
"CC(C)=CCCC(C)C=O (stereo not drawn) [Melanol, 2,6-dimethyl-5-heptenal]",LO Inhibition (0.1%),[3],−20.45%
"CC1=CCC(/C=C/C(C)(C)C(C)O)C1(C)C (stereo not drawn) [Polysantol, 3,3-dimethyl-5(2,2,3-trimethyl-3-cyclopenten-1-yl)-4-penten-2-ol]",inhibition at 0.001 %,[1]; Table 3,36.1%
"CC(C)=CCCC1=CCCC(C)(C=O)C1 (stereo not drawn) [Precyclemone B, 1-methyl-3-(4-methylpent-3-enyl)cyclohex-3-enecarbaldehyde]",MMP3 Inhibition (0.001%),[5],−25.09%
"C=C1CCCC(C)(C)C1C(=O)OC (stereo not drawn) [Romascone ®, methyl 2,2-dimethyl-6-methylenecyclohexanecarboxylate]",inhibition at 0.001 %,[1]; Table 3,23.3%
"CCC/C(CC(=O)CC)=N/O [Stemone, (Z)-5-(hydroxyimino)octan-3-one]",inhibition at 0.001 %,[1]; Table 3,22.3%
"CC(=O)OC1CCC(C(C)(C)C)CC1 (stereo not drawn) [Vertenex ® H.C., 4-tert-butylcyclohexyl acetate]",LO Inhibition (0.1%),[3],−37.86%
same,Cox-1 Inhibition (0.020%),[4],−18.50%
"(2,4,6-)trimethyl-3-cyclohexene-1-carboxaldehyde and (3,5,6-)trimethyl-3-cyclohexene-1-carboxaldehyde [Iso Cyclo Citral]",MMP9 Inhibition (0.01%),[2],−21.78%
same,Cox-2 Inhibition (0.001%),[1]; Table 3,−31.58%
